“Also recorded” adds a separate entry of the source. Read-outs that look alike come from different tables or passages of the source.
Assays:
[1] = tested on: P. aeruginosa PAO1; type: cell-based, Pseudomonas aeruginosa; conditions: for Yield: substrate as energy source; for Use as sole source of energy or nitrogen: MES 5.5 media; for Utilization as an energy source: pH 5.5
Procedure: (§1) Media and growth conditions. LB, amended with antibiotics when appropriate, was used for growth and maintenance of all strains unless otherwise stated. For the 3OC12HSL-dependent enrichment of strain PAI-A and other growth experiments performed on this strain, modified “MES 5.5” defined-medium was used to enrich and study Variovorax paradoxus VAI-C (21). These modifications to the medium included buffering with 5 mM 3-(N-morpholino)-propanesulfonic acid (MOPS) at pH 7.2 and the addition of sodium sulfate (14 g·liter^−1) and magnesium chloride (4 g·liter^−1). For growth experiments with P. aeruginosa, “MES 5.5” defined medium was used as described previously (21) with the exception that it contained sodium sulfate, not sulfite, as S-source, a typographical error in the reported recipe. Unless otherwise noted, the medium was buffered to a pH of 5.5 with 5 mM 2-(N-morpholino)-ethanesulfonic acid (MES). Ammonium-free “MES 5.5” basal medium was used to examine the utilization of AHLs and HSL as potential nitrogen sources. 100 mM stock solutions of AHLs were prepared by dissolving AHLs in ethyl acetate that had been acidified with glacial acetic acid (0.01% v/v), and stocks were stored at −20° C. AHLs used in these studies were: N-3-oxododecanoyl-L-homoserine lactone (3OC12HSL; Quorum Sciences Inc., Iowa City Iowa), N-3-oxohexanoyl-L-homoserine lactone (3OC6HSL; Sigma), and from Fluka: N-3-butanoyl-DL-homoserine lactone (C4HSL), N-3-hexanoyl-DL-homoserine lactone (C6HSL), N-3-heptanoyl-DL-homoserine lactone (C7HSL), N-3-octanoyl-DL-homoserine lactone (C8HSL), N-3-[…], N-3-dodecanoyl-DL-homoserine lactone (C12HSL), N-3-tetradecanoyl-DL-homoserine lactone (C14HSL). For growth experiments, the AHL was dispensed into sterile tubes, the ethyl acetate was removed by evaporation under a stream of sterile air, and sterile medium was added to the dried AHL that remained. Stocks of L-HSL (Sigma) were prepared just prior to their use from well-desiccated reagent stored at −20° C. […] Cells were grown in 5 ml of medium in 18-mm tubes with shaking at 37° C. unless otherwise noted. AHL molecules are stable for approximately 30 days under the conditions of low pH in our defined medium (9, 34). Unless noted, all other reagents were of reagent grade.
(§2) Growth studies. Optical density measurements were performed at 600 nm using a Spectronic 20 spectrophotometer. […] When care was taken to vortex tubes gently, the changes in optical density reflecting growth could be monitored accurately. Molar growth yields were determined in the defined media containing the indicated substrate at a final concentration of 1 or 2 mM. For both Pseudomonas PAI-A and P. aeruginosa PAO1, factors for converting optical density to cell dry mass were determined by growing cells in media containing succinate as the energy source and NH4Cl as the nitrogen source, washing the cells with 50 mM ammonium acetate buffer (pH 5.5), and drying cell samples to a constant weight. Such determinations were made in quadruplicate.

[2] = tested on: Pseudomonas strain PAI-A; type: cell-based
Procedure: as §1, §2

[3] = target: T1, PvdQ AHL acylase (Pseudomonas aeruginosa, UniProt Q9I194); assay: AHL degradation by resting E. coli cells expressing recombinant PvdQ (LC/APCI-MS); type: cell-based, P. aeruginosa; conditions: for HSL-releasing degradation by E. coli expressing recombinant PvdQ: resting cells OD600 1.2, MOPS pH 7.2, 18° C., 10 μM 3OC12HSL; for Product accumulation in PvdQ-expressing E. coli suspensions: incubated with 10 μM 3OC12HSL
T1 construct: The deduced coding region for PvdQ (Gene PA2385; www.pseudomonas.com) was amplified from the genomic DNA; expressed in transfected cells; host or cells: E. coli BL21PRO carrying pPvdQ-PROTet (pPROTet.E133-derived, aTc-inducible)
T1 sequence (Q9I194 24-193): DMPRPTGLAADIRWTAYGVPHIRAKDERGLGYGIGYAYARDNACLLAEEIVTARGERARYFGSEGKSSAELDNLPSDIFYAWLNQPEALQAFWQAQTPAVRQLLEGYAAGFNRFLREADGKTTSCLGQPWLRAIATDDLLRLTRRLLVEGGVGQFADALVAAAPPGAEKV
T1 sequence (Q9I194 217-762): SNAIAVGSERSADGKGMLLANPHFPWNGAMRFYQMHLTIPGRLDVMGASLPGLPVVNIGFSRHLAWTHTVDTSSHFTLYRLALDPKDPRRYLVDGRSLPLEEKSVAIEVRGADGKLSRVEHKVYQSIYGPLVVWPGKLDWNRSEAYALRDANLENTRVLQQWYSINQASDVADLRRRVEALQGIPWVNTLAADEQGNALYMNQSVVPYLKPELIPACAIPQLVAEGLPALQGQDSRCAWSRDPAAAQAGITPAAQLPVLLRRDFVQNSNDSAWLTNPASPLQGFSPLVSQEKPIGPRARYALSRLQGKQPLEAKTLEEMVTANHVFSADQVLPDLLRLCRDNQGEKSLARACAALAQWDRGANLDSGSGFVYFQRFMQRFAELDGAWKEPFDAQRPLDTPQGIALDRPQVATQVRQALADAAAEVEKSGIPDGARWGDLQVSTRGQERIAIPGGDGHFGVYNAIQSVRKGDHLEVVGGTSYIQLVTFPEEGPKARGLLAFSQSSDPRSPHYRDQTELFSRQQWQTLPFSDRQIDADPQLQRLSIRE
Text: (§3) Analysis of cell-free culture and reaction fluids. […] Dilutions were made using “MES 5.5” medium.
Cloning and expression of pvdQ (PA2385) encoding a putative P. aeruginosa AHL acylase. Genomic DNA was isolated from P. aeruginosa PAO1 using the DNeasy™ tissue kit (QIAGEN) and used as a template for PCR. The deduced coding region for PvdQ (Gene PA2385; www.pseudomonas.com) was amplified from the genomic DNA using the following primers: 5′-[…]-3′ (SEQ ID NO:6) and 5′-[…]-3′ (SEQ ID NO:7; bold print indicates HindIII and NotI restriction sites, respectively), cloned into the appropriately digested expression vector, pPROTet.E133 (Clontech), and transformed into E. coli BL21PRO. Recombinant AHL acylase activity was examined as follows. After growth in LB medium containing spectinomycin (50 μg ml^−1) and chloramphenicol (34 μg ml^−1), and after gene induction by the addition of anhydrotetracycline (aTc, 100 ng ml^−1) at 18° C., cells were pelleted and resuspended to a final optical density of 1.2 in MOPS buffered media (pH 7.2) containing 10 μM 3OC12HSL. Recombinant cells that had not been induced with aTc were used as a negative control. Reaction mixtures were incubated at 18° C.; 150 μl samples were removed at 0, 15, 30, and 60 min and analyzed for AHL disappearance and product appearance via LC/APCI-MS (see above).

[4] = tested on: Pseudomonas strain PAI-A; assay: TLC of reaction fluids of dense PAI-A cell suspensions incubated with AHL; type: cell-based; conditions: dense PAI-A cell suspension; 25 mM C12HSL
Text: as §3

[5] = tested on: P. aeruginosa PAO1; conditions: dense PAO1 cell suspension; 25 mM C12HSL
Text: Analysis of cell-free culture and reaction fluids. For the initial characterization of the intermediates in AHL degradation, a TLC method was used (16).

[6] = tested on: P. aeruginosa PA14; assay: Growth of P. aeruginosa PA14 on 3OC12HSL as sole energy source; type: cell-based, Pseudomonas aeruginosa; conditions: defined ammonia-replete media, pH 5.5 and 7.2, naive cells after lag
Procedure: Media and growth conditions. LB, amended with antibiotics when appropriate, was used for growth and maintenance of all strains unless otherwise stated. For the 3OC12HSL-dependent enrichment of strain PAI-A and other growth experiments performed on this strain, modified “MES 5.5” defined-medium was used to enrich and study Variovorax paradoxus VAI-C (21). These modifications to the medium included buffering with 5 mM 3-(N-morpholino)-propanesulfonic acid (MOPS) at pH 7.2 and the addition of sodium sulfate (14 g·liter^−1) and magnesium chloride (4 g·liter^−1). For growth experiments with P. aeruginosa, “MES 5.5” defined medium was used as described previously (21) with the exception that it contained sodium sulfate, not sulfite, as S-source, a typographical error in the reported recipe. Unless otherwise noted, the medium was buffered to a pH of 5.5 with 5 mM 2-(N-morpholino)-ethanesulfonic acid (MES). Ammonium-free “MES 5.5” basal medium was used to examine the utilization of AHLs and HSL as potential nitrogen sources. 100 mM stock solutions of AHLs were prepared by dissolving AHLs in ethyl acetate that had been acidified with glacial acetic acid (0.01% v/v), and stocks were stored at −20° C. […]

[7] = P. aeruginosa PAO1, minimal salts media pH 5.5
[8] = strain PAI-A, minimal salts media pH 7.2

Structure (SMILES) | Doubling time [1, 7] | Yield [1, 7] [g/mol] | HSL-releasing degradation by E. coli expressing recombinant PvdQ [3] | Yield [2, 8] | further results
CCCC(=O)NC1CCOC1=O (racemic) [C4HSL, N-3-butanoyl-DL-homoserine lactone] |  |  |  |  | Degradation of short chain AHL given as co-substrate ([1]; PAO-1, 1 mM C4HSL in 3OC12HSL-containing media): did not degrade detectable amounts; Degradation of short chain AHL given as co-substrate ([2]; PAI-A, 1 mM C4HSL in 3OC12HSL-containing media): did not degrade detectable amounts
CCCCCCCC(=O)NC1CCOC1=O (racemic) [C8-DL-HSL, N-3-octanoyl-DL-homoserine lactone] | 15.0 ± 2 h | 95 ± 4 | catalyzed the HSL-releasing degradation |  | Yield (qualitative) [2, 8]: +, ND^b
CCCCCCCCCC(=O)NC1CCOC1=O (racemic) [C10-DL-HSL, N-3-decanoyl-DL-homoserine lactone] | 14.0 ± 3.8 h | 97 ± 3 | catalyzed the HSL-releasing degradation |  | Yield (qualitative) [2, 8]: +, ND^
CCCCCCCCCCCC(=O)NC1CCOC1=O (racemic) [C12-DL-HSL, N-3-dodecanoyl-DL-homoserine lactone] | 14.9 ± 7.5 h | 84 ± 7 | catalyzed the HSL-releasing degradation | 80 ± 18 g/mol | Doubling time [2, 8]: 16.5 ± 3 h; AHL-dependent release of ninhydrin-reactive materials (HSL, homoserine) by TLC [4]: AHL-dependent release of ninhydrin-reactive materials; AHL-dependent release of ninhydrin-reactive materials (HSL, homoserine) by TLC [5]: AHL-dependent release of ninhydrin-reactive materials
CCCCCCCCCCCCCC(=O)NC1CCOC1=O (racemic) [C14-DL-HSL, N-3-tetradecanoyl-DL-homoserine lactone] | 21.0 ± 5.3 h | 84 ± 12 | catalyzed the HSL-releasing degradation |  | Yield (qualitative) [2, 8]: +, ND^
CCCCCCCCCC(=O)CC(=O)N[C@H]1CCOC1=O [3OC12-L-HSL, N-3-oxododecanoyl-L-homoserine lactone] | 25.0 ± 3 h | 76 ± 10 | degraded 3OC12HSL; also recorded: Within an hour, the AHL disappeared | 84 ± .2 g/mol | Doubling time ([1]; PAO1, defined ammonia-replete media, pH 5.5 and 7.2, naive cells after lag): 264 to 600 h; Doubling time [2, 8]: 25.0 ± 3.5 h; Doubling time [6]: 11 to 25 days
CCCCCCCCCC(=O)CC(=O)NC(CCO)C(=O)O (centres unmarked) [3OC12-homoserine] |  |  |  |  | Product accumulation in PvdQ-expressing E. coli suspensions [3]: No 3OC12-homoserine accumulation was observed
CCCCCCCCCC(=O)O [Decanoate] |  | 130 ± 3 |  | 126 ± .5 g/mol | 
CCCCCCCCCCCC(=O)O [Dodecanoate] |  | 141 ± 4 |  | 155 ± 8.4 g/mol | 
N[C@H]1CCOC1=O [HSL, homoserine lactone] |  |  |  |  | Use as sole source of energy or nitrogen ([1]; P. aeruginosa PAO1): did not use; Utilization as an energy source ([1]; P. aeruginosa PAO1): Neither strain PAI-A nor PAO1 used; also recorded: did not grow; Utilization as an energy source ([2]; strain PAI-A, pH 7.2): Neither strain PAI-A nor PAO1 used; Product accumulation in PvdQ-expressing E. coli suspensions [3]: accumulation of stoichiometric amounts
O=C(O)CCC(=O)O [Succinate] | 0.6 ± .09 h | 43 ± 3 |  |  | Doubling time [2]: 0.583 h; Doubling time ([2]; pH 7.2): 0.6 ± .02 h; Yield ([2]; pH 7.2): 49 ± 3.8 g/mol
CCCCCCCCCCCCCC(=O)O [Tetradecanoate] |  | 177 ± 16 |  | 198 ± 3 g/mol | 
N[C@@H](CCO)C(=O)O [homoserine] |  |  |  |  | Use as sole source of energy or nitrogen ([1]; P. aeruginosa PAO1): did not use; Utilization as an energy source ([1]; P. aeruginosa PAO1): did not grow
CCn1cc(C(=O)O)c(=O)c2ccc(C)nc21 [nalidixate] |  |  |  |  | Growth in media containing the agent ([2]; PAI-A, 30 μg nalidixate·ml^−1): did not grow

Reference: patent publication US7335352B1, “Method of identifying agents that inhibit quorum sensing activity of gamma-proteobacteria” (priority 2003, dated 2008)
